Source: patent US10519134B2, “Pyrazole compounds and methods of making and using same” (Lundbeck La Jolla Research Center, Inc., priority 2015, dated 2019)

Assays:
FAAH = target: T1, FAAH (Mus musculus, UniProt O08914); assay: In vitro competitive activity-based protein profiling (mouse), FAAH gel band; type: biochemical; conditions: for inhibition at 1 µM: read-out: FAAH % inh. 1 μM; for IC50: mouse
T1 construct: Proteomes (mouse brain membrane fraction or cell lysates); from tissue; host or cells: mouse brain membrane fraction (or cell lysates)
T1 sequence (O08914 1-579): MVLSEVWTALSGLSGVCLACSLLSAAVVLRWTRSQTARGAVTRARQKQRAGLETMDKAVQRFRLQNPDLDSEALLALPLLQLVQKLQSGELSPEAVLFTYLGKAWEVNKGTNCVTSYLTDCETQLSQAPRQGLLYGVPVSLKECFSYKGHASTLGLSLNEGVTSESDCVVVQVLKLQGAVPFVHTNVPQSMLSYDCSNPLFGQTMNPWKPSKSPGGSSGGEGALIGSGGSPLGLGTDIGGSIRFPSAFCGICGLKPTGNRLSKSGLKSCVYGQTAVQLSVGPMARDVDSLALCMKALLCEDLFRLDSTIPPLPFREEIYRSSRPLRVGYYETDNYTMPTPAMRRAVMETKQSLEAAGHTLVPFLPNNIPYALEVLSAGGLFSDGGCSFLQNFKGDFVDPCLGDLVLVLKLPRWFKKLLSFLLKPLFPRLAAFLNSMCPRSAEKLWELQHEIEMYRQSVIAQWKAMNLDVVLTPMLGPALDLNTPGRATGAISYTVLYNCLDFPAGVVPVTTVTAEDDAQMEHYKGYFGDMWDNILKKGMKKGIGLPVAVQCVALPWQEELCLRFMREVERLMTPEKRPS
Method: (§1) In Vitro Competitive Activity-Based Protein Profiling (Mouse).
(§2) Proteomes (mouse brain membrane fraction or cell lysates) (50 μL, 1.0 mg/mL total protein concentration) were preincubated with varying concentrations of inhibitors at 37° C. After 30 min, FP-Rh or HT-01 (1.0 μL, 50 μM in DMSO) was added and the mixture was incubated for another 30 min at 37° C. Reactions were quenched with SDS loading buffer (15 μL—4×) and run on SDS-PAGE. Following gel imaging, serine hydrolase activity was determined by measuring fluorescent intensity of gel bands corresponding to MAGL, ABHD6, and FAAH, using ImageJ 1.43u software.

MAGL = target: T2, MAGL (Mus musculus, UniProt O35678); assay: In vitro competitive activity-based protein profiling (mouse), MAGL gel band; type: biochemical; conditions: for inhibition at 1 µM: read-out: MAGL % inh. 1 μM; for IC50: mouse
T2 construct: Proteomes (mouse brain membrane fraction or cell lysates); from tissue; host or cells: mouse brain membrane fraction (or cell lysates)
T2 sequence (O35678 1-303): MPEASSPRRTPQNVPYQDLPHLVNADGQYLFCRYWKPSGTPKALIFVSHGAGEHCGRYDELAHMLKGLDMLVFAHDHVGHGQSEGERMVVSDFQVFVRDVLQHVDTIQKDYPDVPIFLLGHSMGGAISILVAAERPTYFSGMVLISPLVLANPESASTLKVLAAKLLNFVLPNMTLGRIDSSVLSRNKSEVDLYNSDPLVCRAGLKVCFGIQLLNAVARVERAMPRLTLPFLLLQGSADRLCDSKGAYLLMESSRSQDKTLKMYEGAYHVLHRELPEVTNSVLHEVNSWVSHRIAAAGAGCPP
Method: as §1, §2

Structure (SMILES) | inhibition at 1 µM (FAAH) [%] | inhibition at 1 µM (MAGL) [%] | IC50 (FAAH) [nM] | IC50 (MAGL) [nM]
CC(=O)Nc1ccn(C(=O)N2CCC3(CCCN3Cc3ccc(Cl)cc3N3CCC(F)(F)CC3)CC2)n1 [Example 11, N-(1-(1-(4-chloro-2-(4,4-difluoropiperidin-1-yl)benzyl)-1,8-diazaspiro[4.5]decane-8-carbonyl)-1H-pyrazol-3-yl)acetamide] | 0 to 25 | ≥ 75 | 1000 to 10000 | 100 to 1000
CC(=O)Nc1ccn(C(=O)N2CCC3(CCCN3Cc3ccc(C(F)(F)F)cc3N3CCN(S(C)(=O)=O)CC3)CC2)n1 [Example 21, N-(1-(1-(2-(4-(methylsulfonyl)piperazin-1-yl)-4-(trifluoromethyl)benzyl)-1,8-diazaspiro[4.5]decane-8-carbonyl)-1H-pyrazol-3-yl)acetamide] | 0 to 25 | ≥ 75 | 1000 to 10000 | 100 to 1000
CS(=O)(=O)Nc1ccn(C(=O)N2CCC3(CCCN3Cc3ccc(Cl)cc3N3CCCC3)CC2)n1 [Example 131, N-(1-(1-(4-chloro-2-(pyrrolidin-1-yl)benzyl)-1,8-diazaspiro[4.5]decane-8-carbonyl)-1H-pyrazol-3-yl)methanesulfonamide] | 0 to 25 | 50 to 75 |  | 
CC(=O)Nc1ccn(C(=O)N2CCC3(CCCN3Cc3ccc(Cl)cc3N3CCN(S(C)(=O)=O)CC3)CC2)n1 [Example 35, N-(1-(1-(4-chloro-2-(4-(methylsulfonyl)piperazin-1-yl)benzyl)-1,8-diazaspiro[4.5]decane-8-carbonyl)-1H-pyrazol-3-yl)acetamide] | 0 to 25 | ≥ 75 | 1000 to 10000 | 100 to 1000
CC(=O)Nc1ccn(C(=O)N2CCC3(CCCN3Cc3cc(Cl)cc(N4C5CCC4COC5)c3)CC2)n1 [Example 64, N-(1-(1-(3-(3-oxa-8-azabicyclo[3.2.1]octan-8-yl)-5-chlorobenzyl)-1,8-diazaspiro[4.5]decane-8-carbonyl)-1H-pyrazol-3-yl)acetamide] | 0 to 25 | ≥ 75 | 1000 to 10000 | ≤ 100
CC(=O)Nc1ccn(C(=O)N2CCC3(CCCN3Cc3ccc(Cl)cc3N3CCN(C4CC4)CC3)CC2)n1 [Example 13, N-(1-(1-(4-chloro-2-(4-cyclopropylpiperazin-1-yl)benzyl)-1,8-diazaspiro[4.5]decane-8-carbonyl)-1H-pyrazol-3-yl)acetamide] | 0 to 25 | ≥ 75 | 1000 to 10000 | 100 to 1000
O=C(CO)Nc1ccn(C(=O)N2CCN(Cc3cccc(Oc4ccccc4)c3)CC2)n1 [Example 92, 2-hydroxy-N-(1-(4-(3-phenoxybenzyl)piperazine-1-carbonyl)-1H-pyrazol-3-yl)acetamide] | ≥ 75 | ≥ 75 |  | 
O=C(CO)Nc1ccn(C(=O)N2CCN(Cc3ccc(Cl)cc3)CC2)n1 [Example 91, N-(1-(4-(4-chlorobenzyl)piperazine-1-carbonyl)-1H-pyrazol-3-yl)-2-hydroxyacetamide] | 0 to 25 | ≥ 75 |  | 
CS(=O)(=O)Nc1ccn(C(=O)N2CCC3(CCCN3Cc3cccc(N4CCCC4)c3Cl)CC2)n1 [Example 141, N-(1-(1-(2-chloro-3-(pyrrolidin-1-yl)benzyl)-1,8-diazaspiro[4.5]decane-8-carbonyl)-1H-pyrazol-3-yl) methanesulfonamide] | 0 to 25 | ≥ 75 | 1000 to 10000 | 100 to 1000
CS(=O)(=O)Nc1ccn(C(=O)N2CCC3(CCCN3Cc3ccc(Cl)cc3N3CCOCC3)CC2)n1 [Example 264, N-(1-(1-(4-chloro-2-morpholinobenzyl)-1,8-diazaspiro[4.5]decane-8-carbonyl)-1H-pyrazol-3-yl) methanesulfonamide] | 0 to 25 | 25 to 50 |  | 
Cc1c(CN2CCCC23CCN(C(=O)n2ccc(NS(C)(=O)=O)n2)CC3)cccc1N1CC2CCC(C1)O2 [Example 149, N-(1-(1-(3-(8-oxa-3-azabicyclo[3.2.1]octan-3-yl)-2-methylbenzyl)-1,8-diazaspiro[4.5]decane-8-carbonyl)-1H-pyrazol-3-yl) methanesulfonamide] | 0 to 25 | 50 to 75 |  | 

Other lines, results leading:

inhibition at 1 µM (FAAH) [%] | inhibition at 1 µM (MAGL) [%] | IC50 (FAAH) [nM] | IC50 (MAGL) [nM] | Structure (SMILES)
0 to 25 | 0 to 25 |  |  | CS(=O)(=O)Nc1ccn(C(=O)N2CCN(Cc3cc(N4CCOCC4)ccc3Cl)CC2)n1 [Example 258, N-(1-(4-(2-chloro-5-morpholinobenzyl)piperazine-1-carbonyl)-1H-pyrazol-3-yl) methanesulfonamide]
0 to 25 | 0 to 25 |  |  | CS(=O)(=O)Nc1ccn(C(=O)N2CCC3(CCCN3Cc3ccc(C(F)(F)F)cc3N3CCN(S(C)(=O)=O)CC3)CC2)n1 [Example 255, N-(1-(1-(2-(4-(methylsulfonyl)piperazin-1-yl)-4-(trifluoromethyl)benzyl)-1,8-diazaspiro[4.5]decane-8-carbonyl)-1H-pyrazol-3-yl) methanesulfonamide]
0 to 25 | ≥ 75 |  |  | CS(=O)(=O)Nc1ccn(C(=O)N2CCN(Cc3cc(Cl)ccc3N3CCCC3)CC2)n1 [Example 179, N-(1-(4-(5-chloro-2-(pyrrolidin-1-yl)benzyl)piperazine-1-carbonyl)-1H-pyrazol-3-yl) methanesulfonamide]
0 to 25 | ≥ 75 |  |  | CS(=O)(=O)Nc1ccn(C(=O)N2CCN(Cc3cc(C(F)(F)F)cc(C(F)(F)F)c3)CC2)n1 [Example 177, N-(1-(4-(3,5-bis(trifluoromethyl)benzyl)piperazine-1-carbonyl)-1H-pyrazol-3-yl) methanesulfonamide]
0 to 25 | 25 to 50 |  |  | CS(=O)(=O)Nc1ccn(C(=O)N2CCN(Cc3cc(N4CCN(S(C)(=O)=O)CC4)cc(C(F)(F)F)c3)CC2)n1 [Example 254, N-(1-(4-(3-(4-(methylsulfonyl)piperazin-1-yl)-5-(trifluoromethyl)benzyl)piperazine-1-carbonyl)-1H-pyrazol-3-yl) methanesulfonamide]
0 to 25 | 25 to 50 |  |  | CN1CCC(Oc2cc(CN3CCN(C(=O)n4ccc(NS(C)(=O)=O)n4)CC3)ccc2Cl)CC1 [Example 220, N-(1-(4-(4-chloro-3-((1-methylpiperidin-4-yl)oxy)benzyl)piperazine-1-carbonyl)-1H-pyrazol-3-yl) methanesulfonamide]
0 to 25 | 0 to 25 |  |  | CS(=O)(=O)Nc1ccn(C(=O)N2CCC3(CCCN3Cc3ccc(N4CCOCC4)cc3C(F)(F)F)CC2)n1 [Example 164, N-(1-(1-(4-morpholino-2-(trifluoromethyl)benzyl)-1,8-diazaspiro[4.5]decane-8-carbonyl)-1H-pyrazol-3-yl)methanesulfonamide]
≥ 75 | ≥ 75 | 100 to 1000 | ≤ 100 | CS(=O)(=O)Nc1ccn(C(=O)N2CCN(Cc3ccc(-c4ccccc4)cc3Cl)CC2)n1 [Example 158, N-(1-(4-((3-chloro-[1,1′-biphenyl]-4-yl)methyl)piperazine-1-carbonyl)-1H-pyrazol-3-yl) methanesulfonamide]
0 to 25 | ≥ 75 |  |  | CS(=O)(=O)Nc1ccn(C(=O)N2CCN(Cc3ccc(Cl)c(-c4nnco4)c3)CC2)n1 [Example 260, N-(1-(4-(4-chloro-3-(1,3,4-oxadiazol-2-yl)benzyl)piperazine-1-carbonyl)-1H-pyrazol-3-yl) methanesulfonamide]
